# Measurements as given in paper PMC11354745, “Discovery of Novel Amino Acids (Analogues)-Substituted Thiophene[3,2-d]pyrimidine Derivatives as Potent HIV-1 Non-Nucleoside Reverse Transcriptase Inhibitors: Design, Synthesis, and Biological Evaluation” (International Journal of Molecular Sciences, 2024).
# Read-outs that look alike come from different tables or passages of the source.
# Key:
# [1] = test system: HIV-1 double-mutant strain K103N+Y181C (RES056); test: microbe, parasite or virus in culture; format: cell-based; settings: for EC50: Human immunodeficiency virus 1, MT4, read-out: EC50 RES056; for SI RES056: selectivity index, ratio CC50/EC50, RES056
# Experimental: (§1) All the target compounds were first evaluated for their antiviral activity against HIV-1 wild-type (WT) strain (IIIB) and the double-mutant strain K103N+Y181C (RES056) in the MT-4 cell line, using the MTT method.
# (§2) The antiviral potential and cytotoxic effects of the target compounds were assessed using the MTT assay in MT-4 cells, following established protocols. The HIV-1 (IIIB) strain, single mutant strains (L100I, K103N, Y181C, Y188L and E138K), double mutant strains (F227L + V106A and K103N + Y181C) and MT-4 cells were provided by the Rega Institute of Medicine at the University of Leuven, Belgium. These viral strains were propagated in MT-4 cells. […] The specific experimental procedures are detailed below.
# (§3) Initially, concentrated solutions of the test compounds were prepared at 10-fold the final desired concentration and added to triplicate wells in 25 µL aliquots to assess their impacts on both mock and HIV-infected MT-4 cells. Using a Biomek 3000 robot, these were diluted in a 96-well flat-bottomed microplate by mixing with medium, creating a series of 5-fold steps down in concentration. Each test included control groups of untreated infected and mock-infected cells to establish baselines for comparison. […] These strains served to mimic both typical and resistant infections. Additionally, mock-infected wells received an equal volume of culture medium to assess the compounds’ impacts on uninfected cells, thereby determining cytotoxicity. MT-4 cells in the exponential growth phase were pelleted by centrifugation at 1000 rpm for 5 min, after which the supernatant was removed. The cells were resuspended to a density of 6 × 10^5 cells/mL, and 50 µL of this suspension was added to each well. Post-infection, on the fifth day, cell viability in both mock and infected conditions was measured via the MTT assay using a spectrophotometer.
# [2] = Cytotoxicity in mock-infected MT-4 cells (MTT method); format: cell-based; settings: human
# Experimental: (§4) The antiviral potential and cytotoxic effects of the target compounds were assessed using the MTT assay in MT-4 cells, following established protocols. The HIV-1 (IIIB) strain, single mutant strains (L100I, K103N, Y181C, Y188L and E138K), double mutant strains (F227L + V106A and K103N + Y181C) and MT-4 cells were provided by the Rega Institute of Medicine at the University of Leuven, Belgium. These viral strains were propagated in MT-4 cells. The MT-4 cells were cultured in RPMI-1640 medium supplemented with 20 mM HEPES buffer (Life Technologies, Grand Island, NY, USA), 10% (v/v) heat-inactivated fetal calf serum (FCS), 2 mM L-glutamine, 0.1% sodium bicarbonate, and 20 μg/mL gentamicin. Cultures were maintained at 37 °C in a 5% CO2 atmosphere. The specific experimental procedures are detailed below.
# (§5) Initially, concentrated solutions of the test compounds were prepared at 10-fold the final desired concentration and added to triplicate wells in 25 µL aliquots to assess their impacts on both mock and HIV-infected MT-4 cells. Using a Biomek 3000 robot, these were diluted in a 96-well flat-bottomed microplate by mixing with medium, creating a series of 5-fold steps down in concentration. Each test included control groups of untreated infected and mock-infected cells to establish baselines for comparison. We introduced HIV-1 strains, both wild-type (IIIB) and drug-resistant variants harboring mutations L100I, K103N, Y181C, Y188L, E138K and F227L + V106A and the double mutant K103N + Y181C (RES056), at concentrations of 100–300 CCID50, into their respective wells. These strains served to mimic both typical and resistant infections. Additionally, mock-infected wells received an equal volume of culture medium to assess the compounds’ impacts on uninfected cells, thereby determining cytotoxicity. MT-4 cells in the exponential growth phase were pelleted by centrifugation at 1000 rpm for 5 min, after which the supernatant was removed. The cells were resuspended to a density of 6 × 10^5 cells/mL, and 50 µL of this suspension was added to each well. Post-infection, on the fifth day, cell viability in both mock and infected conditions was measured via the MTT assay using a spectrophotometer. The CC50 was identified as the concentration of the compound that caused a 50% reduction in the viability of the mock-infected cells, indicating cytotoxicity. Conversely, the EC50 represented the concentration that provided 50% protection against viral cytopathic effects in infected cells, signifying antiviral potency.
# [3] = test system: HIV-1 wild-type (WT) strain (IIIB); test: Anti-HIV activity in MT-4 cells (MTT method), HIV-1 IIIB; format: cell-based; settings: for EC50: Human immunodeficiency virus 1, IIIB, MT4, read-out: EC50 IIIB; for SI IIIB: selectivity index, ratio CC50/EC50, IIIB
# Experimental: as §1, §2, §3
# [4] = test system: HIV-1 Y181C mutant strain; test: Anti-HIV activity in MT-4 cells (MTT method), Y181C; format: cell-based; settings: Human immunodeficiency virus 1, MT4, read-out: EC50 Y181C
# Source text: (§6) All the target compounds were first evaluated for their antiviral activity against HIV-1 wild-type (WT) strain (IIIB) and the double-mutant strain K103N+Y181C (RES056) in the MT-4 cell line, using the MTT method. The potent inhibitors were selected to assess their efficacy against other strains resistant to NNRTIs, including L100I, K103N, Y181C, Y188L, E138K and the double-mutant strain F227L+V106A. The approved drugs NVP, EFV and ETR were selected as reference drugs. The biological evaluation results of the test compounds, presented as EC50 (anti-HIV potency), CC50 (cytotoxicity) and SI (selectivity index, CC50/EC50 ratio), are summarized in Table 1 and Table 2.
# as §4, §5
# WT HIV-1 RT = target: T1, WT HIV-1 RT (Human immunodeficiency virus type 1 group M subtype B, UniProt P03366); test: HIV-1 RT inhibition assay (Roche kit, ELISA); format: biochemical
# T1 construct: viral nucleotides (dNTPs) and the HIV-1 RT enzyme in an incubation buffer; purchased Roche
# Source text: An assay kit for HIV-1 reverse transcriptase (RT) from Roche was utilized to assess RT inhibition. The kit provided all necessary components for the RT reaction, and the enzyme-linked immunosorbent assay (ELISA) methodology for the inhibition assay was executed according to the kit’s instructions. […] Unbound dNTPs were washed away, and an anti-[…] (DIG)-POD working solution was introduced. […] Excess anti-DIG-POD was removed, and a peroxidase substrate (ABTS) solution was applied to the MTPs. […] The percentage of the inhibitory activity of the RT inhibitors was calculated by formula, as given below:
# % Inhibition = [O.D. value with RT but without inhibitors − O.D. value with RT and inhibitors]/[O.D. value with RT […] − O.D. value without RT and inhibitors].
# [5] = test system: HIV-1 L100I mutant strain; test: Anti-HIV activity in MT-4 cells (MTT method), L100I; format: cell-based; settings: Human immunodeficiency virus 1, MT4, read-out: EC50 L100I
# Source text: as §6, §4, §5
# [6] = test system: HIV-1 K103N mutant strain; test: Anti-HIV activity in MT-4 cells (MTT method), K103N; format: cell-based; settings: Human immunodeficiency virus 1, MT4, read-out: EC50 K103N
# Source text: as §6, §4, §5
# [7] = test system: HIV-1 double-mutant strain F227L+V106A; test: Anti-HIV activity in MT-4 cells (MTT method), F227L+V106A; format: cell-based; settings: Human immunodeficiency virus 1, MT4, read-out: EC50 F227L/V106A
# Source text: as §6, §4, §5
# [8] = test system: HIV-1 E138K mutant strain; test: Anti-HIV activity in MT-4 cells (MTT method), E138K; format: cell-based; settings: Human immunodeficiency virus 1, MT4, read-out: EC50 E138K
# Source text: as §6, §4, §5
# [9] = test system: HIV-1 Y188L mutant strain; test: Anti-HIV activity in MT-4 cells (MTT method), Y188L; format: cell-based; settings: Human immunodeficiency virus 1, MT4, read-out: EC50 Y188L
# Source text: as §6, §4, §5
# [10] = reduces viability of mock-infected MT-4 cell cultures by 50%, MTT method, read-out: CC50
Compound,melting point,EC50 [1],CC50 at 5 days ([2]; CC50),EC50 [3],SI IIIB [3],SI RES056 [1],EC50 [4],IC50 (WT HIV-1 RT),EC50 [5],EC50 [6],EC50 [7],EC50 [8],EC50 [9],"CC50 at 5 days [2, 10]"
Cc1cc(C#N)cc(C)c1Oc1nc(Nc2ccc(NC(=O)C(Cc3c[nH]c4ccccc34)NC(=O)OC(C)(C)C)cc2)nc2ccsc12 (stereo not shown) [5a],205 to 208 °C,> 186000 nM,> 186000 nM,940 ± 278 nM,>197,,,,,,,,,
Cc1cc(C#N)cc(C)c1Oc1nc(Nc2ccc(NC(=O)C(N)Cc3c[nH]c4ccccc34)cc2)nc2ccsc12 (stereo not shown) [5b],224 to 227 °C,> 22400 nM,22400 ± 560 nM,89 ± 43 nM,250,<1,,,,,,,,
Cc1cc(C#N)cc(C)c1Oc1nc(Nc2ccc(NC(=O)[C@H](Cc3cn(C(=O)OC(C)(C)C)cn3)NC(=O)OC(C)(C)C)cc2)nc2ccsc12 [5c],236 to 238 °C,> 19600 nM,19600 ± 720 nM,672 ± 648 nM,29,<1,,,,,,,,
Cc1cc(C#N)cc(C)c1Oc1nc(Nc2ccc(NC(=O)[C@H](Cc3ccccc3)NC(=O)OC(C)(C)C)cc2)nc2ccsc12 [5d],220 to 222 °C,> 197000 nM,> 197000 nM,771 ± 236 nM,>256,,,,,,,,,
Cc1cc(C#N)cc(C)c1Oc1nc(Nc2ccc(NC(=O)[C@@H](N)Cc3c[nH]cn3)cc2)nc2ccsc12 [5e],158 to 160 °C,≥ 4880 nM,25100 ± 2300 nM,52 ± 22 nM,484,≤5,2580 ± 477 nM,927 ± 64 nM,902 ± 311 nM,35 ± 9 nM,1460 ± 979 nM,260 ± 75 nM,2260 ± 733 nM,
Cc1cc(C#N)cc(C)c1Oc1nc(Nc2ccc(NC(=O)[C@@H](NC(=O)OC(C)(C)C)C(C)C)cc2)nc2ccsc12 [5f],158 to 160 °C,> 213000 nM,> 213000 nM,848 ± 247 nM,>251,,,,,,,,,
Cc1cc(C#N)cc(C)c1Oc1nc(Nc2ccc(NC(=O)C3CCCN3C(=O)OC(C)(C)C)cc2)nc2ccsc12 (stereo not shown) [5g],236 to 238 °C,> 191000 nM,191000 nM,924 ± 242 nM,206,<1,,,,,,,,
CNCC(=O)Nc1ccc(Nc2nc(Oc3c(C)cc(C#N)cc3C)c3sccc3n2)cc1 [5j],171 to 173 °C,> 17300 nM,17300 ± 11500 nM,242 ± 65 nM,72,<1,,,,,,,,
Cc1cc(C#N)cc(C)c1Oc1nc(Nc2ccc(NC(=O)C3CC(O)CN3)cc2)nc2ccsc12 (stereo not shown) [5l],,> 26800 nM,26800 ± 1070 nM,59 ± 10 nM,451,<1,2600 ± 225 nM,1710 ± 298 nM,1480 ± 545 nM,72 ± 18 nM,2190 ± 45 nM,314 ± 95 nM,2740 ± 103 nM,
Cc1cc(C#N)cc(C)c1Oc1nc(Nc2ccc(NC(=O)[C@@H](CC(C)C)NC(=O)OC(C)(C)C)cc2)nc2ccsc12 [5m],,> 208000 nM,> 208000 nM,9860 ± 1180 nM,>21,,,,,,,,,
Cc1cc(C#N)cc(C)c1Oc1nc(Nc2ccc(NC(=O)[C@H](N)CC(C)C)cc2)nc2ccsc12 [5n],,5500 ± 1360 nM,24300 ± 4280 nM,62 ± 19 nM,391,4,2160 ± 57 nM,2390 ± 86 nM,2120 ± 455 nM,131 ± 4 nM,2030 ± 1180 nM,231 ± 154 nM,2110 ± 288 nM,
Cc1cc(C#N)cc(C)c1Oc1nc(Nc2ccc(NC(=O)CN(C)C(=O)OC(C)(C)C)cc2)nc2ccsc12 [5o],,,5840 ± 1180 nM,863 ± 253 nM,7,,,,,,,,,
Cc1cc(C#N)cc(C)c1Oc1nc(Nc2ccc(NC(=O)C3CC(O)CN3C(=O)OC(C)(C)C)cc2)nc2ccsc12 (stereo not shown) [5p],,,22500 ± 391 nM,2580 ± 520 nM,9,,,,,,,,,
"O=C1Nc2ccc(Cl)cc2[C@@](C#CC2CC2)(C(F)(F)F)O1 [EFV, efavirenz, reference compound]",,698 ± 449 nM,,6 ± 2 nM,,,8 ± 1 nM,,54 ± 36 nM,132 ± 50 nM,329 ± 228 nM,10 ± 5 nM,280 ± 91 nM,> 6350 nM
"Cc1cc(C#N)cc(C)c1Oc1nc(Nc2ccc(C#N)cc2)nc(N)c1Br [ETR, etravirine, reference compound]",,40 ± 11 nM,> 4610 nM,3 ± 1 nM,,,15 ± 5 nM,,,3 ± 1 nM,9 ± 4 nM,9 ± 4 nM,21 ± 8 nM,
"Cc1ccnc2c1NC(=O)c1cccnc1N2C1CC1 [NVP, nevirapine, reference compound]",,> 15000 nM,,236 ± 114 nM,,,8040 ± 1680 nM,,1740 ± 879 nM,4090 ± 3710 nM,7500 ± 2590 nM,181 ± 67 nM,9870 ± 2470 nM,> 15000 nM
